The experiment can be described thus: Binding affinity to human 6His-thr cIAP1 BIR3 (253 to 363) domain expressed in Escherichia coli measured after 105 mins in dark by time-resolved fluorescence laser-equipped multimode plate reader.

Molecules are shown by their SMILES. pIC50: −log10 of the molar value.

`Cc1[nH]nc(Nc2ncnc3cc(OCCCN4CCN(C(=O)c5cnc(N6CCN(C[C@H]7CN[C@H](C)CN7CC(=O)N7CC(C)(C)c8c7cc(Cc7ccc(F)cc7)c(=O)n8C)[C@H](C)C6)nc5)CC4)c(S(=O)(=O)C(C)(C)C)cc23)c1C`: the pIC50 (commonly the negative decadic logarithm of the IC50, by convention in mol/L) was 8.30.
In the case of `CN[C@@H](C)C(=O)N[C@H](C(=O)N1CCC[C@H]1c1nc(C(=O)c2ccc(F)cc2)cs1)C1CCN(C(=O)c2cnc(N3CCN(CCCOc4cc5ncnc(Nc6n[nH]c(C)c6C)c5cc4S(=O)(=O)C(C)(C)C)CC3)cn2)CC1` it was 8.10.

Values taken from BindingDB's records for doi:10.1021/acs.jmedchem.1c01118 (Glaxosmithkline, 2021).
